We go through one substance from patent US20220170028A1, “NOVEL INTERLEUKIN-2 VARIANTS AND BIFUNCTIONAL FUSION MOLECULES THEREOF” (Cugene Inc, priority 2019, published 2022).

Data set [1] can be described thus: Aggregate content by size-exclusion chromatography after Protein A purification. In kind it is physicochemical. To be noted: Isoleucine-125 constructs; after MabSelectSure. The protocol: For affinity chromatography each supernatant was loaded on a HiTrap MabSelectSure column (CV=5 mL, GE Healthcare) equilibrated with 25 ml phosphate buffered saline, pH 7.2 (ThermoFisher). Unbound protein was removed by washing with 5 column volumes PBS, pH 7.2 and target protein was eluted with 25 mM sodium citrate, 25 mM sodium chloride, pH 3.2. Protein solution was neutralized by adding 3% of 1 M Tris pH 10.2. Ion exchange chromatography or mix-mode chromatography, including but not limited to CaptoMMC (GE Healthcare), ceramic hydroxyapatite, or ceramic fluoroapatite (Bio-Rad) was also utilized to polish the Protein A material as needed. Target protein was concentrated with an Amicon®Ultra-15 concentrator 10 KDa NMWC (Merck Millipore Ltd.)
The purity and molecular weight of the purified constructs were analyzed by SDS-PAGE with and in the absence of a reducing agent and staining with Coomassie (Imperial® Stain). The NuPAGE® Pre-Cast gel system (4-12% or 8-16% Bis-Tris, ThermoFisher) was used according to the manufacturer's instructions. The protein concentration of purified protein samples was determined by measuring the UV absorbance at 280 nm (Nanodrop Spectrophotometer, ThermoFisher) divided by the molar extinction coefficient calculated on the basis of the amino acid sequence. The aggregate content of the constructs was analyzed on an Agilent 1200 high-performance liquid chromatography (HPLC) system. Samples were injected onto an AdvanceBio size-exclusion column (300 Å, 4.6×150 mm, 2.7 μm, LC column, Agilent) using 150 mM sodium phosphate, pH 7.0 as the mobile phase at 25° C.
S125I substitution was thus introduced into a number of IL-2 variant Fc fusion molecules. The constructs harboring Ile-125 substitution in IL-2 were expressed using the same vector and in the same culturing conditions as their Ser-125 counterparts and purified using MabSelectSure. The expression level in mg/L and purity assessed by SEC chromatography in aggregation % of exemplary molecules are summarized in Table 6. The two molecules in the same row of Table 6 share the same other amino acid substitution(s) and differ only at residue 125 with either serine or isoleucine. As an example, the SEC chromatogram and SDS-PAGE pictures of P-0447 (SEQ ID NO: 173) and its Ile-125 counterpart P-0511 (SEQ ID NO: 213) were further illustrated in FIGS. 1D and 1E.
(In gel filtration, larger molecules generally elute earlier.)

The test system of data set [2] is STAT5 phosphorylation in CD4+ Treg cells. Put plainly: STAT5 phosphorylation in CD4+ Treg cells, human PBMC assay by FACS. In kind it is cell-based. The method in brief: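 Donor PBMCs were starved in serum-free buffer at 4° C for 1 h, then 2×10^5 cells were exposed to serial dilutions of IL-2 variants for 30 min at 37° C. After fixation and permeabilization they were stained for CD4, CD25, FOXP3 and pSTAT5. Read-out is percent pSTAT5+ cells among CD4+/Foxp3+/CD25^high (Treg) or CD4+/Foxp3−/CD25^low (Tconv) cells by flow cytometry.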
On the technique in general: In flow cytometry, cells or beads pass a laser one at a time.

The test system of data set [3] is STAT5 phosphorylation in CD8+ T cells. Nature of the data set: STAT5 phosphorylation in CD8+ T cells, human PBMC. In kind it is cell-based. An excerpt:
The Stat5 phosphorylation activity on other responder cells than CD4+ T cell subsets, including CD8+T and NK, by P-0511 was compared to P-0531, the S125I equivalent of wild-type P-0250. […] IL-2 receptors expressed on CD4+ Tconv, CD8+T and NK cells are primarily dimeric IL-2Rs, comprising IL-2R6 and γc.

The subject of a further data set is CD8+ T cells. Put plainly: CD8+ T cell proliferation, CFSE dilution, human PBMC. In kind it is cell-based. The conditions noted are these: 5 or 7 days incubation. The protocol:
Further, P-0511 and P-0512 were tested for their ability to stimulate NK and CD8+ T cells proliferation in comparison with the wild type and benchmark molecules. Intracellular fluorescent label carboxyfluorescein diacetate succinimidyl ester (CFSE) method was utilized. Briefly, human PBMC (1×10^5 cells/well) were labeled with CFSE, plated onto 96-well plates, and incubated with increasing concentrations of different IL-2 compounds. Cells were then harvested after 5 or 7 days of incubation and stained with either anti-CD56-APC antibody for NK cells or anti-CD8-APC antibody for CD8+ T cells; and analyzed by flow cytometry. Data are expressed as a percent of divided cells and illustrated in FIG. 10A for CD8+ T cell proliferation and FIG. 10B for NK cell proliferation.

Data set [4] concerns CD4+ Tconv cells, CD8 T cells and NK cells. Put plainly: Effector T cell and NK cell proliferation and expansion in mice after a single subcutaneous injection (Example 9). In kind it is in vivo, mouse. The conditions noted are these: 0.3 mg/kg single s.c., C57/BL6 mice. The protocol: IL-2 variant Fc fusion proteins were administered to mice and their ability to preferentially proliferate and expand regulatory T cells (CD4+CD25+FoxP3+ T cells) over effector T cells and NK cells were determined in vivo.
Female C57/BL6 mice (7-week old) were received from Charles River Laboratory and acclimated in house for at least 7 days before the study. Vehicle (PBS), 0.3 mg/kg of each test compounds, or IL-2 benchmark compounds were subcutaneously administered to mice on day 0. Peripheral blood samples were collected into heparin-treated tubes on days 3, 5 and 7 post-treatment. Each group contained 6 mice and baseline blood was collected 2 days prior to the treatment (day −2). After red blood cell lysis, total viable mononuclear blood cells were counted by trypan blue dead cell exclusion method and proceeded to intracellular staining for immune cell phenotype and Ki67 proliferation markers using flow cytometric analysis. Cells were stained separately with two panels of antibodies as listed: 1) anti-mouse Foxp3-FITC, Ki67-PE, anti-mouse CD25-APC and anti-mouse CD4-Percpcy5.5 (1:50 dilution) for CD4+T-regulatory cells (Treg); 2) anti-mouse CD3-FITC, Ki67-PE, anti-mouse CD335-APC and anti-mouse CD8-Percpcy5.5 (1:50 dilution) for CD8+T and NK cells.

For the substance “P-0511: IL-2 L19H/S125I/Q126E Fc fusion, SEQ ID NO: 213”, the “Aggregation % (SEC)” value in data set [1] stood at 0.7%. In addition, in data set [2], the “potency in ex vivo cell assay relative to P-0560” value is on record as “over 100 fold”. Also, in data set [3], the “STAT5 phosphorylation activity in CD8+ T cells (in words)” value is on record as “nearly completely abolished”. Also, the “potency in stimulating CD8+ T cell proliferation (in words)” value in the data set with CD8+ T cells is reported as “on par with Benchmark-3”. For the same substance, in data set [4], the “Ki67 stimulation on CD8 T cells and NK cells in vivo (in words)” value is listed as “mild Ki67 stimulation”; the “expansion of CD4+ Tconv cells, CD8 T cells or NK cells in vivo” value was “No significant expansion”.
